Reference: US20250282798A1, “HETEROARYL-SUBSTITUTED BICYCLIC COMPOUND AND USE THEREOF” (Medshine Discovery Inc., priority 2022, published 2025)

Legend:
human HPK1 = human HPK1 (Homo sapiens (Human), UniProt Q92918); assay: Kinase activity assay using ADP-Glo method (Method 2); type: biochemical; details: HPK1 enzyme concentration 0.1 nM; ATP concentration 10 μM
Procedure: Method 2: The IC50 value was assayed by the kinase activity assay using ADP-Glo method to evaluate the inhibitory ability of a test compound on human HPK1.
Enzyme buffer conditions: 50 mM Hepes (pH 7.5), 10 mM MgCl2, 1 mM EGTA, 0.01% Brij35, 2 mM DTT. […]
Assay steps: A compound was diluted 4-fold with DMSO in a dilution plate, with a final initial concentration of […] and 10 concentration gradient points. The compound was diluted 50-fold into the kinase reaction buffer, and the mixture was shaken on a shaker for 20 minutes. The kinase was prepared with the enzyme reaction buffer. 2 μL of kinase was added to each well of a reaction plate. 1 μL of the diluted compound in the buffer was added to each well. The plate was sealed with a sealing film, centrifuged at 1000 g for 30 seconds, and placed at room temperature for 10 minutes. The mixed solution of ATP/MBP was prepared with the enzyme reaction buffer. 2 μL of the mixed solution of ATP/MBP was added to the reaction plate. The plate was sealed with a sealing film, and centrifuged at 1000 g for 30 seconds. The mixture in the plate was reacted at room temperature for 60 minutes. […] The plate was incubated at 25° C. for 40 min. […] The plate was incubated at 25° C. for 40 min. The RLU (relative luminescence unit) signal was read with a BMG microplate reader, and the signal intensity was used to characterize the activity of the kinase.
(§1) The kinase activity data were expressed as the comparison of the kinase activity of a group with a test compound and the kinase activity of the blank group (containing only DMSO). The IC50 value was obtained by curve fitting using Prism software (GraphPad7.0).

human GLK = human GLK (Homo sapiens (Human), UniProt Q8IVH8); assay: Kinase activity assay using ADP-Glo method, GLK; type: biochemical; details: GLK enzyme concentration 8 nM; ATP 20 μM
human GLK, sequence (Q8IVH8 whole entry): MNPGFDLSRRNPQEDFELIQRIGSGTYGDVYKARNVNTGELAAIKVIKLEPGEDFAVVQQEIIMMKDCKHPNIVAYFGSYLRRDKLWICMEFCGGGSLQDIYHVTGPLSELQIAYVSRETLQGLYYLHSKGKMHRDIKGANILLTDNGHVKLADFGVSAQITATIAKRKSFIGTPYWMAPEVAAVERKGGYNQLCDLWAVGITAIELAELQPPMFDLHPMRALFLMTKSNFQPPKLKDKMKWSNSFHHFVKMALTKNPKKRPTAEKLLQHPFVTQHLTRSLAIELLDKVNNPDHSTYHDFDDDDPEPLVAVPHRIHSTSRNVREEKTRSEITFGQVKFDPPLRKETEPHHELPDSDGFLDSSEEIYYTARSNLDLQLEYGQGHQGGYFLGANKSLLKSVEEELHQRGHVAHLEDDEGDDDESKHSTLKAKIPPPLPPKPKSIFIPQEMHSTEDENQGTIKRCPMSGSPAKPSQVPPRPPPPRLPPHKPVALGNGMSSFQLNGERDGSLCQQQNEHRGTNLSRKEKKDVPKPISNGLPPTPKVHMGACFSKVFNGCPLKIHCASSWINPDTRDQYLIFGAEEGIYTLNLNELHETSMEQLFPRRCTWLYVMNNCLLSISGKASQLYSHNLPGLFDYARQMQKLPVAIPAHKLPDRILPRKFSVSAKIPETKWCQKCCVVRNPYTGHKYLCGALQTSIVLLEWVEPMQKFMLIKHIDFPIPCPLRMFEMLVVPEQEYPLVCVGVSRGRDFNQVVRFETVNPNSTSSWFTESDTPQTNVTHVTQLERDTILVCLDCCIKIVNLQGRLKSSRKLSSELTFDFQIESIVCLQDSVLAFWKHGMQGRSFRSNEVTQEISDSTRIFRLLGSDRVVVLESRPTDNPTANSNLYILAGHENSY
Procedure: The IC50 value was assayed by the kinase activity assay using ADP-Glo method to evaluate the inhibitory ability of a test compound on human GLK.
Enzyme buffer conditions: 50 mM Hepes (pH 7.5), 10 mM MgCl2, 1 mM EGTA, 0.01% Brij35, 2 mM DTT.
Preparation of the mixture of kinase and substrate: the concentration of GLK in the reaction solution was 8 nM, the concentration of ATP was […], and the concentration of MBP was 0.05 mg/mL.
Assay steps: A compound was diluted 4-fold with DMSO in a dilution plate, with a final initial concentration of […] and 10 concentration gradient points. The compound was diluted 50-fold into the kinase reaction buffer, and the mixture was shaken on a shaker for 20 minutes. The kinase was prepared with the enzyme reaction buffer. 2 μL of kinase was added to each well of a reaction plate. 1 μL of the diluted compound in the buffer was added to each well. The plate was sealed with a sealing film, centrifuged at 1000 g for 30 seconds, and placed at room temperature for 10 minutes. The mixed solution of ATP/MBP was prepared with the enzyme reaction buffer. 2 μL of the mixed solution of ATP/MBP was added to the reaction plate. The plate was sealed with a sealing film, and centrifuged at 1000 g for 30 seconds. The mixture in the plate was reacted at room temperature for 60 minutes. 4 μL of ADP-Glo was transferred to the 384 reaction plate, and centrifuged at 1000 rpm/min for 1 min. The plate was incubated at 25° C. for 40 min. 8 μL of detection solution was transferred to the 384 reaction plate, and centrifuged at 1000 rpm/min for 1 min. The plate was incubated at 25° C. for 40 min. The RLU (relative luminescence unit) signal was read with a BMG microplate reader, and the signal intensity was used to characterize the activity of the kinase.
as §1

[1] = In vitro metabolic stability in human liver microsomes; type: in vitro ADME; details: 1 μM compound, 0.5 mg/mL protein
Procedure: The in vitro metabolic stability of the compounds of the present disclosure in human was investigated by the metabolic stability in human liver microsomes.
Assay conditions: 1 μM of a compound was incubated with human liver microsomes supplemented with NADPH regeneration system at 37° C. for a certain period of time up to 60 minutes. The concentration of the compound in the resulting sample was assayed by LC-MS/MS method.
Assay procedure: 96-well incubation plates were named T0, T5, T15, T30, T45, T60, Blank60 and NCF60, respectively. The reaction time corresponding to the incubation plates were 0, 5, 15, 30, 45 and 60 minutes, respectively. No test sample or control compound was added to the Blank60 plate, and samples were taken after 60 minutes of incubation. Potassium phosphate buffer was used instead of NADPH regeneration system solution in the NCF60 plate, and the plate was incubated for 60 minutes. All the samples of the time points were from a single well.
5 μL of a test sample or control sample working solution and 100 μL of microsome working solution (the concentration of liver microsome protein was 0.5 mg/mL) were added to the T0, T5, T15, T30, T45, T60 and NCF60 plates, respectively. Only microsome working solution was added to the Blank60 plate. Then, the Blank60, T5, T15, T30, T45 and T60 plates, except TO and NCF60 plates, were placed in a 37° C. water bath, and preincubated for about 10 minutes.
180 μL of stop solution (the stop solution was a solution of tolbutamide (100 ng/mL) in acetonitrile and methanol (95:5, V/V)) was firstly added to the sample of TO plate, and then the NADPH regeneration system working solution was added.
50 μL of potassium phosphate buffer was added to each well of the NCF60 plate, and the plate was incubated for 60 minutes.
After the pre-incubation of Blank60, T5, T15, T30, T45 and T60 plates, 44 μL of NADPH regeneration system working solution was added to each sample well to initiate the reaction. Therefore, for the sample wells containing a test sample or control sample working solution, the final concentration of the reaction was […], the concentration of liver microsomes was 0.5 mg/mL, and the final concentrations of DMSO and acetonitrile in the reaction system were 0.01% (v/v) and 0.99% (v/v), respectively.
After being incubated for an appropriate time (e.g., 5, 15, 30, 45, and 60 min), 180 μL of stop solution was added to each well of the test sample and control sample of Blank60, T5, T15, T30, T45, T60, and NCF60 plates, respectively, to terminate the reaction.
All sample plates were shaken and centrifuged for 10 min. 80 μL of the supernatant of a test sample was taken and diluted into 240 μL of a mixture of acetonitrile and water (1:9, V/V) containing 0.1% formic acid for LC-MS/MS analysis.
By calculating the corresponding time point and the remaining percentage of a compound, the half-life T1/2 and clearance rate CLint(liver) of the compound in human liver microsome metabolism were obtained.

human HPK1, sequence (Q92918 whole entry): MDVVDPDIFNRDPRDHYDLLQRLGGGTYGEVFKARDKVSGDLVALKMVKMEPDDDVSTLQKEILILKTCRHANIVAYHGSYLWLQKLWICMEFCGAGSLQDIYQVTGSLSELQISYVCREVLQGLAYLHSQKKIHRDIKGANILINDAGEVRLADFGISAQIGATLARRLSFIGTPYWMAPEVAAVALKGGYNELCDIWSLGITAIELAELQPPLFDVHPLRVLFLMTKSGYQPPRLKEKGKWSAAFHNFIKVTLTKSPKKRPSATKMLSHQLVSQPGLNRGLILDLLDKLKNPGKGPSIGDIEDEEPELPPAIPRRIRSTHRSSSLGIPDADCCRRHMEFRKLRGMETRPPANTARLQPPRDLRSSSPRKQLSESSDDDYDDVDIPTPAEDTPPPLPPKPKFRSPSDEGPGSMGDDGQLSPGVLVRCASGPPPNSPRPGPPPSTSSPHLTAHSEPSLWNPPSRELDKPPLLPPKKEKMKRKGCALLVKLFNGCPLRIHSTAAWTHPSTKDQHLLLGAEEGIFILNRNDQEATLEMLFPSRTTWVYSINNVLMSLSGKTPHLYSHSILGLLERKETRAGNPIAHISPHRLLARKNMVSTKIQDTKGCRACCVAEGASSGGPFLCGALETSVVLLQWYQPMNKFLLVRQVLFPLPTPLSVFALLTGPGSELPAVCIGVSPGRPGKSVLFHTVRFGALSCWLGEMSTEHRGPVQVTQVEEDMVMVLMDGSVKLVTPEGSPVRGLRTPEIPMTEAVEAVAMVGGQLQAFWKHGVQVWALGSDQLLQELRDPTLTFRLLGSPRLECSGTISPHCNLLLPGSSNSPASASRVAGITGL

O=C1NCc2c(-c3cnc4cc(F)ccn34)ccc(Nc3ccc4c(n3)OC[C@@H]3COCCN43)c21 [Compound 8]
IC50 (human HPK1): 2 nM
IC50 (human GLK): 154 nM
CLint scaled at 1 μM [1]: 37 mL/min/kg
half-life at 1 μM [1]: 34 min

Cn1ccc2c(-c3ncc(Nc4ccc5c(n4)OC[C@@H]4COCCN54)c4c3CNC4=O)ccnc21 [Compound 4]
IC50 (human HPK1): 0.62 nM
IC50 (human GLK): 594 nM
CLint(liver) [1]: 35 mL/min/kg
T1/2 [1]: 36 min
